How the values were obtained:
[1] = Solubilizing paclitaxel in GRAS essential oils; assay type: physicochemical
[2] = Solubility of paclitaxel in eugenol and in egg phosphatidylcholine/eugenol/water mixture; assay type: physicochemical
Description: The solubility of a given active in a mixture of hydrophobe and lipid is typically a very strongly increasing function of an increasing hydrophobe:lipid ratio, because the hydrophobe can generally be chosen specifically for its ability to solubilize the particular active whereas the choice of lipid has much more to do with its ability to form liquid crystals (in the presence of the hydrophobe, in particular).

CC(=O)O[C@H]1C(=O)[C@@]2(C)[C@H]([C@H](OC(=O)c3ccccc3)[C@]3(O)C[C@H](OC(=O)[C@H](O)[C@@H](NC(=O)c4ccccc4)c4ccccc4)C(C)=C1C3(C)C)[C@]1(OC(C)=O)CO[C@@H]1C[C@@H]2O [Paclitaxel]
Paclitaxel solubility (w/w, approx) ([1]; in essential oil: Oil of bay): ~16% w/w
Paclitaxel solubility (w/w, approx) ([1]; in essential oil: Sweet basil): ~7% w/w
Paclitaxel solubility (w/w, approx) ([1]; in essential oil: Thyme): ~10% w/w
solubility in lipid/eugenol/water mixture ([2]; in a mixture of 42% egg phosphatidylcholine, 35% eugenol, and 23% water): less than 1.5%
solubility in eugenol ([2]; in eugenol): over 15 % by weight
